Results reported in patent publication US8168642B2, “Dihydropyrimidine compounds and their uses in preparation of medicaments for treating and preventing antiviral diseases” (Beijing Molecule Science and Technology Co., Ltd., priority 2006, dated 2012).

Tests used:
HBV DNA = assay: Antiviral activity: inhibition of HBV DNA in supernatant of HepG 2.2.15 cells (dot blot hybridization); assay type: cell-based; details: Hepatitis B virus, HepG2.2.15, 192 h, 8 days incubation, HB-specific DNA in supernatant, read-out: IC50 (inhibitory effect on HBV DNA)
Method: The antiviral effect of the compound of the present invention is determined according to the methods described by Sells, et al (M. A. Sells, M. L. Chen, G. Proc. Natl. Acad. Sci. 1987, 84, 1005-1009) and Korba, et al (B. E. Korba, J. L. Gerin Antiviral Research 1992, 19, 55-70).
(§1) The antiviral test was carried out in a 96-cell microtiter plate. The first column of the plate only contained a culture medium and HepG 2.2.15 cells, as a blank control.
(§2) First, a stock solution ([…]) of a test compound was dissolved in DMSO, and further diluted with a culture medium for growth of HepG 2.2.15 cells. Usually, the compound of the present invention was transferred by suction at a test concentration of 100 μg/ml (the first test concentration) to each cell of the second column of the microtiter plate, and then diluted with the culture medium for growth plus 2% fetal bovine serum (25 μL), by 2 times once, up to 2^10 times at the maximum.
(§3) Then, 225 μL of a suspension of HepG 2.2.15 cells in the culture medium for growth plus 2% fetal bovine serum (5×10^4 cells/ml) was added to each cell of the 96-cell microtiter plate.
(§4) The test mixture was incubated under the conditions of 37° C., 5% CO2 for 4 days. Then, the supernatant was removed by suction, and to each cell 225 μL of a new-prepared culture medium for growth was added. Again, the compound of the present invention was added with a solution of 25 μL. The obtained mixture was further incubated for 4 days.
Thereafter, the supernatant was collected, and sucked in vacuum to a 96-cell dot blot chamber covered by nylon film (used in accordance with the instructions for use provided by the manufacturer).
Determination of Antiviral Activity
After the supernatant was transferred onto the nylon film of the dot blot device (see the contents hereinabove), the supernatant of HepG 2.2.15 cells was denaturated (1.5 M NaCl/0.5 M NaOH), neutralized (3 M NaCl/0.5 M Tris. HCl, pH 7.5) and washed (2×SSC). Then, the filter film was kept at 120° C. for 2-4 hours, whereby DNA was baked on the filter film.
Usually, viral DNA of HepG 2.2.15 cells treated on the nylon film was detected by using a non-radioactive digoxigenin labeled HB-specific DNA probe. Wherein, each time the probe was labeled with digoxigenin, purified and hybridized according to the directions for use given by the manufacturer.
Briefly, pre-hybridization and hybridization were conducted with 5×SSC, 1× blocking agent, 0.1% N-lauroyl sarcosine, 0.02% SDS and 100 μg sperm DNA of black carp. After pre-hybridization at 60° C. for 30 min, a specific hybridization (at 60° C. for 14 hr) was conducted with 20-40 ng/ml digoxigenin labeled denaturalized HBV specific DNA. Then, the film was washed, followed by HBV DNA detection with digoxigenin antibody.
The immunology detection of digoxigenin labeled DNA was conducted according to the directions for use given by the manufacturer.
Briefly speaking, the film was washed and pre-hybridized with a blocking agent (in accordance with the directions for use given by the manufacturer), and then hybridized with an anti-DIG antibody that had been previously coupled onto an alkaline phosphatase for 30 min. After washing, an alkaline phosphatase substrate CSPD was added, and cultured together with the filter for 5 min, and then wrapped in a plastic film, followed by further culturing at 37° C. for 15 min. The filter was exposed to X-ray, and the chemical luminous signal (culturing for 10 min to 2 hr according to the signal strength) of HB-specific DNA on the film was detected, whereby a half inhibitory concentration (IC50) was calculated.
The half inhibitory concentration (IC50) refers to the concentration of the compound of the present invention which reduces the HB-specific band by 50% as compared with the untreated sample.

HepG 2.2.15 cells = assay: Cytotoxicity in HepG 2.2.15 cells (cell morphology under microscope after 8 days, Reed&Muench); assay type: cell-based; details: pathological change of cells after 8 days
Method: as §1, §2, §3, §4
Prior to collection of the supernatant for determination of the antiviral effect, the change in cytotoxicity of HepG 2.2.15 cells was investigated by using optical microscopic technique or biochemical detection method (e.g., Alamar Blue staining or Trypan Blue staining).
Determination of Cytotoxicity
The substance-induced change in cytotoxicity in HepG 2.2.15 cells or in inhibition of the cells could be determined by using, e.g., optical microscopic technique, and expressed by the change of cell morphology. Such substance-induced changes, e.g., cell lysis, cavity formation or change in cell morphology, in HepG 2.2.15 cells were apparent as compared to the untreated cells.
Taking the observed pathological change of cells as index, the pathological change of cells was observed under microscope after 8 days, a complete destroy being indicated as 4; 75% being indicated as 3; 50% being indicated as 2; 25% being indicated as 1; and no pathological change being indicated as 0. The average extents of pathological change of cells and the inhibition percentages at various concentrations were calculated. According to Reed&Muench method, a half toxic concentration (TC50) and a maximum non-toxic concentration (TC0) were calculated.
TC50 refers to the concentration of the compound of the present invention when 50% of cells have a similar morphology to the corresponding cells as a control.

SMILES	melting point [°C]	IC50 (HBV DNA) [nM]	TD50 (HepG 2.2.15 cells) [µM]
CCOC(=O)C1=C(C)N(C(C)=O)C(c2csc(C)n2)=NC1c1cccc(F)c1 (centres unmarked)	127 to 130	–	–
CCOC(=O)C1=C(C)N(C(C)=O)C(c2csc(C)n2)=NC1c1ccc(F)cc1 (centres unmarked)	140 to 142	–	–
CCOC(=O)C1=C(C)N(C(C)=O)C(c2csc(C)n2)=NC1c1cccc(C)c1 (centres unmarked)	113 to 114	–	–
CCOC(=O)C1=C(C)N(C(C)=O)C(c2csc(C)n2)=NC1c1ccc(C)cc1 (centres unmarked)	187 to 188	–	–
CCOC(=O)C1=C(C)N(C(C)=O)C(c2csc(C)n2)=NC1c1cccc(OC)c1 (centres unmarked)	114 to 116	–	–
CCOC(=O)C1=C(C)N(C(C)=O)C(c2csc(C)n2)=NC1c1ccc(OC)cc1 (centres unmarked)	138 to 140	–	–
CCOC(=O)C1=C(C)N(C(C)=O)C(c2csc(C)n2)=NC1c1ccccc1 (centres unmarked)	140 to 142	–	–
CCOC(=O)C1=C(C)N(C(C)=O)C(c2csc(C)n2)=NC1c1ccc(Cl)cc1 (centres unmarked)	169 to 171	–	–
COC(=O)C1=C(C)NC(c2ncsc2Cl)=NC1c1ccc(F)cc1 (centres unmarked)	118 to 122	–	–
CCOC(=O)C1=C(C)N(C(C)=O)C(c2cscn2)=NC1c1cccc(OC)c1 (centres unmarked)	130 to 131	–	–
CCOC(=O)C1=C(C)NC(c2cscn2)=NC1c1ccc(F)cc1Cl (centres unmarked) [Example 1, ethyl 2-(thiazol-4-yl)-4-(2-chloro-4-fluorophenyl)-6-methyl-1,4-dihydro-pyrimidin-5-carboxylate]	140 to 142	3350	50.59
COC(=O)C1=C(C)NC(c2csc(C)n2)=NC1c1ccc(F)cc1Cl (centres unmarked) [Example 29, methyl 2-(2-methylthiazol-4-yl)-4-(2-chloro-4-fluorophenyl)-6-methyl-1,4-dihydro-pyrimidin-5-carboxylate]	–	8420	56.34
CCOC(=O)C1=C(C)NC(c2csc(Cl)n2)=NC1c1ccc(F)cc1Cl (centres unmarked) [Example 33, ethyl 2-(2-chlorothiazol-4-yl)-4-(2-chloro-4-fluorophenyl)-6-methyl-1,4-dihydro-pyrimidin-5-carboxylate]	141 to 143	870	7.17
COC(=O)C1=C(C)NC(c2csc(Cl)n2)=NC1c1ccc(F)cc1Cl (centres unmarked) [Example 34, methyl 2-(2-chlorothiazol-4-yl)-4-(2-chloro-4-fluorophenyl)-6-methyl-1,4-dihydro-pyrimidin-5-carboxylate]	160 to 162	2080	12.35
COC(=O)C1=C(C)NC(c2scnc2C)=NC1c1ccc(F)cc1Cl (centres unmarked) [Example 37, methyl 2-(4-methylthiazol-5-yl)-4-(2-chloro-4-fluorophenyl)-6-methyl-1,4-dihydro-pyrimidin-5-carboxylate]	145 to 147	14600	101.42
CCOC(=O)C1=C(C)NC(c2scnc2C)=NC1c1ccc(F)cc1Cl (centres unmarked) [Example 38, ethyl 2-(4-methylthiazol-5-yl)-4-(2-chloro-4-fluorophenyl)-6-methyl-1,4-dihydro-pyrimidin-5-carboxylate]	134 to 139	2220	54.33
COC(=O)C1=C(C)NC(c2sc(C)nc2C)=NC1c1ccc(F)cc1Cl (centres unmarked) [Example 39, methyl 2-(2,4-dimethylthiazol-5-yl)-4-(2-chloro-4-fluorophenyl)-6-methyl-1,4-dihydro-pyrimidin-5-carboxylate]	116 to 118	3200	165.90
CCOC(=O)C1=C(C)NC(c2sc(C)nc2C)=NC1c1ccc(F)cc1Cl (centres unmarked) [Example 40, ethyl 2-(2,4-dimethylthiazol-5-yl)-4-(2-chloro-4-fluorophenyl)-6-methyl-1,4-dihydro-pyrimidin-5-carboxylate]	117 to 119	2590	157.42
CCOC(=O)C1=C(C)NC(c2c(F)cc(F)cc2F)=N[C@H]1c1ccc(F)cc1Cl [Example 62, ethyl 4-R-(2-chloro-4-fluorophenyl)-2-(2,4,6-trifluorophenyl)-6-methyl-1,4-dihydro-pyrimidin-5-carboxylate]	–	2010	117.23

Continued, in another order:

melting point [°C]	SMILES	IC50 (HBV DNA) [nM]	TD50 (HepG 2.2.15 cells) [µM]
213 to 216	CCOC(=O)C1=C(C)NC(c2cscn2)=NC1c1ccc(O)cc1 (centres unmarked)	–	–
105 to 108	CCOC(=O)C1=C(C)NC(c2cscn2)=NC1c1cccc(Cl)c1 (centres unmarked)	–	–
126 to 128	CCOC(=O)C1=C(C)NC(c2cscn2)=NC1c1ccccc1F (centres unmarked)	–	–
123 to 125	CCOC(=O)C1=C(C)NC(c2csc(C)n2)=NC1c1ccc(F)cc1Cl (centres unmarked)	–	–
175 to 178	CCOC(=O)C1=C(C)NC(c2csc(C)n2)=NC1c1cccc(O)c1 (centres unmarked)	–	–
208 to 210	CCOC(=O)C1=C(C)NC(c2csc(C)n2)=NC1c1ccc(O)cc1 (centres unmarked)	–	–
143 to 144	CCOC(=O)C1=C(C)NC(c2csc(C)n2)=NC1c1cccc(Cl)c1 (centres unmarked)	–	–
118 to 120	CCOC(=O)C1=C(C)NC(c2cscn2)=NC1c1cccc(F)c1 (centres unmarked)	–	–
118 to 120	CCOC(=O)C1=C(C)NC(c2cscn2)=NC1c1ccc(F)cc1 (centres unmarked)	–	–
95 to 110	CCOC(=O)C1=C(C)NC(c2csc(N)n2)=NC1c1ccc(F)cc1Cl (centres unmarked)	–	–
149 to 152	CCOC(=O)C1=C(C)NC(c2ncsc2Cl)=NC1c1ccc(F)cc1Cl (centres unmarked)	–	–
98 to 100	COC(=O)C1=C(C)NC(c2ncsc2Cl)=NC1c1ccc(F)cc1Cl (centres unmarked)	–	–
133 to 134	CCOC(=O)C1=C(C)NC(c2cscn2)=NC1c1cccc(C)c1 (centres unmarked)	–	–
107 to 111	CCOC(=O)C1=C(C)NC(c2cnc(C)s2)=NC1c1ccc(F)cc1Cl (centres unmarked)	–	–
159 to 162	CCOC(=O)C1=C(C)NC(c2cnc(Cl)s2)=NC1c1ccc(F)cc1Cl (centres unmarked)	–	–
> 230	COC(=O)C1=C(C)NC(c2cnc(Cl)s2)=NC1c1ccc(F)cc1Cl (centres unmarked)	–	–
175 to 178	COC(=O)C1=C(C)NC(c2cnc(Cl)s2)=NC1c1ccc(F)cc1 (centres unmarked)	–	–
157 to 162	CCOC(=O)C1=C(C)NC(c2ncc[nH]2)=NC1c1ccc(F)cc1Cl (centres unmarked)	–	–
114 to 117	CCOC(=O)C1=C(C)NC(c2nccn2Cc2ccccc2)=NC1c1ccc(F)cc1Cl (centres unmarked)	–	–
124 to 127	CCOC(=O)C1=C(C)NC(c2nccn2C)=NC1c1ccccc1Cl (centres unmarked)	–	–
121 to 125	CCOC(=O)C1=C(C)NC(c2ncc[nH]2)=NC1c1ccccc1Cl (centres unmarked)	–	–
155 to 158	CC1=C(C(=O)OC(C)C)C(c2ccc(F)cc2Cl)N=C(c2c(F)cccc2F)N1 (centres unmarked)	–	–
140 to 142	CCOC(=O)C1=C(C)NC(c2cscn2)=NC1c1cccc(OC)c1 (centres unmarked)	–	–
180 to 183	CCOC(=O)C1=C(C)NC(c2cscn2)=NC1c1cccc(O)c1 (centres unmarked)	–	–
